According to patent US12404289B2 (Gilead Sciences, Inc., priority 2020, dated 2025):

tested on: Respiratory syncytial virus (RSV) strain A2; test: RSV antiviral assay (HEp-2, 96 well); format: cell-based; conditions: human respiratory syncytial virus, HEp-2, 96 h, read-out: EC50 RSV HEP2 96, HEp-2 cells, RSV A2, MOI=4, 4 days, 96 well; Table 3

C[C@H](NP(=O)(OC[C@H]1O[C@@](C#N)(c2ccc3c(N)ncnn23)[C@H](O)[C@@H]1O)Oc1ccccc1)C(=O)OCCC(C)(C)C (stereo partly drawn) [Intermediate P8a, 3,3-dimethylbutyl ((((2R,3S,4R,5R)-5-(4-aminopyrrolo[2,1-f][1,2,4]triazin-7-yl)-5-cyano-3,4-dihydroxytetrahydrofuran-2-yl)methoxy)(phenoxy)phosphoryl)-L-alaninate] and CCC(C)(C)CCOC(=O)[C@H](C)NP(=O)(OC[C@H]1O[C@@](C#N)(c2ccc3c(N)ncnn23)[C@H](O)[C@@H]1O)Oc1ccccc1 (stereo partly drawn) [Intermediate S4, 3,3-dimethylpentyl ((((2R,3S,4R,5R)-5-(4-aminopyrrolo[2,1-f][1,2,4]triazin-7-yl)-5-cyano-3,4-dihydroxytetrahydrofuran-2-yl)methoxy)(phenoxy)phosphoryl)-L-alaninate] are within 1.5-fold of each other in EC50: 20.3 nM for the first, 14.9 nM for the second.

Compared with CCC(CC)COC(=O)[C@H](C)NP(=O)(OC[C@H]1O[C@@](C#N)(c2ccc3c(N)ncnn23)[C@H](OC(=O)C(C)C)[C@@H]1OC(=O)C(C)C)Oc1ccc2ccccc2c1 (stereo partly drawn) [Example 69a, [(2R,3R,4R,5R)-5-(4-aminopyrrolo[2,1-f][1,2,4]triazin-7-yl)-5-cyano-2-[[[[(1S)-2-(2-ethylbutoxy)-1-methyl-2-oxo-ethyl]amino]-(2-naphthyloxy)phosphoryl]oxymethyl]-4-(2-methylpropanoyloxy)tetrahydrofuran-3-yl] 2-methylpropanoate], CCC(C)(C)COC(=O)[C@H](C)NP(=O)(OC[C@H]1O[C@@](C#N)(c2ccc3c(N)ncnn23)[C@H](OC(=O)C(C)C)[C@@H]1OC(=O)C(C)C)Oc1ccccc1 (stereo partly drawn) [Example 114, (2R,3R,4R,5R)-2-(4-aminopyrrolo[2,1-f][1,2,4]triazin-7-yl)-2-cyano-5-((((((S)-1-(2,2-dimethylbutoxy)-1-oxopropan-2-yl)amino)(phenoxy)phosphoryl)oxy)methyl)tetrahydrofuran-3,4-diyl bis(2-methylpropanoate)] is 2.8-fold higher in EC50: 22.1 nM for the first, 61 nM for the second.

Compared with CCC(CC)COC(=O)[C@H](C)NP(=O)(OC[C@H]1O[C@@](C#N)(c2ccc3c(N)ncnn23)[C@H](O)[C@@H]1O)Oc1ccc(C[C@H](NC(=O)OCc2ccccc2)C(=O)OCCC(C)C)cc1 (stereo partly drawn) [Example 71, isopentyl (2S)-3-[4-[[(2R,3S,4R,5R)-5-(4-aminopyrrolo[2,1-f][1,2,4]triazin-7-yl)-5-cyano-3,4-dihydroxy-tetrahydrofuran-2-yl]methoxy-[[(1S)-2-(2-ethylbutoxy)-1-methyl-2-oxo-ethyl]amino]phosphoryl]oxyphenyl]-2-(benzyloxycarbonylamino)propanoate], CCCCCCOC(=O)[C@H](Cc1ccccc1)NP(=O)(OC[C@H]1O[C@@](C#N)(c2ccc3c(N)ncnn23)[C@H](O)[C@@H]1O)Oc1ccc(C(C)(C)C)cc1 (stereo partly drawn) [Example 119, hexyl ((((2R,3S,4R,5R)-5-(4-aminopyrrolo[2,1-f][1,2,4]triazin-7-yl)-5-cyano-3,4-dihydroxytetrahydrofuran-2-yl)methoxy)(4-(tert-butyl)phenoxy)phosphoryl)-L-phenylalaninate] is 3.2-fold lower in EC50: 1790 nM for the first, 559 nM for the second. The second is the more potent here.

CCOC(=O)[C@H](C)NP(=O)(OC[C@H]1O[C@@](C#N)(c2ccc3c(N)ncnn23)[C@H](O)[C@@H]1O)Oc1ccc(C(C)C)cc1 (stereo partly drawn) [Example 63a] and CCCCCCOC(=O)[C@H](C)NP(=O)(OC[C@H]1O[C@@](C#N)(c2ccc3c(N)ncnn23)[C@H](O)[C@@H]1O)Oc1ccc(C(C)(C)C)cc1 (stereo partly drawn) [Example 120, hexyl ((((2R,3S,4R,5R)-5-(4-aminopyrrolo[2,1-f][1,2,4]triazin-7-yl)-5-cyano-3,4-dihydroxytetrahydrofuran-2-yl)methoxy)(4-(tert-butyl)phenoxy)phosphoryl)-L-alaninate] are within 1.5-fold of each other in EC50: 104 nM for the first, 73.9 nM for the second.

Compared with CCOCCOCCOC(=O)[C@H](C)NP(=O)(OC[C@H]1O[C@@](C#N)(c2ccc3c(N)ncnn23)[C@H](O)[C@@H]1O)Oc1ccc(C(C)(C)C)cc1 (stereo partly drawn) [Example 112, 2-(2-ethoxyethoxy)ethyl ((((2R,3S,4R,5R)-5-(4-aminopyrrolo[2,1-f][1,2,4]triazin-7-yl)-5-cyano-3,4-dihydroxytetrahydrofuran-2-yl)methoxy)(4-(tert-butyl)phenoxy)phosphoryl)-L-alaninate], CCC(C)(C)COC(=O)[C@H](C)NP(=O)(OC[C@H]1O[C@@](C#N)(c2ccc3c(N)ncnn23)[C@H](O)[C@@H]1O)Oc1ccccc1 (stereo partly drawn) [Intermediate D9, 2,2-dimethylbutyl ((((2R,3S,4R,5R)-5-(4-aminopyrrolo[2,1-f][1,2,4]triazin-7-yl)-5-cyano-3,4-dihydroxytetrahydrofuran-2-yl)methoxy)(phenoxy)phosphoryl)-L-alaninate] is 8.6-fold lower in EC50: 560 nM for the first, 65.4 nM for the second.

Going from CC(C)C(=O)O[C@H]1[C@@H](OC(=O)C(C)C)[C@](C#N)(c2ccc3c(N)ncnn23)O[C@@H]1COP(=O)(N[C@@H](C)C(=O)OC1CCCCCCC1)Oc1ccc(C(C)(C)C)cc1 (single isomer, unassigned) [Example 77a] to C[C@H](NP(=O)(OC[C@H]1O[C@@](C#N)(c2ccc3c(N)ncnn23)[C@H](O)[C@@H]1O)Oc1ccc(C(C)(C)C)cc1)C(=O)OC1CCCCCCC1 (stereo partly drawn) [Example 73, cyclooctyl (2S)-2-[[[(2R,3S,4R,5R)-5-(4-aminopyrrolo[2,1-f][1,2,4]triazin-7-yl)-5-cyano-3,4-dihydroxy-tetrahydrofuran-2-yl]methoxy-(4-tert-butylphenoxy)phosphoryl]amino]propanoate], the EC50 rises from 194 nM to 552 nM (2.8-fold).

First: C[C@H](NP(=O)(OC[C@H]1O[C@@](C#N)(c2ccc3c(N)ncnn23)[C@H](O)[C@@H]1O)Oc1ccc(C2CC2)cc1)C(=O)OC1CCC1 (stereo partly drawn) [Example 51a, cyclobutyl (2S)-2-[[[(2R,3S,4R,5R)-5-(4-aminopyrrolo[2,1-f][1,2,4]triazin-7-yl)-5-cyano-3,4-dihydroxy-tetrahydrofuran-2-yl]methoxy-(cyclopropylphenoxy)phosphoryl]amino]propanoate]
Second: C[C@H](NP(=O)(OC[C@H]1O[C@@](C#N)(c2ccc3c(N)ncnn23)[C@H](O)[C@@H]1O)Oc1ccc(C(C)(C)C)cc1)C(=O)O[C@H]1CC[C@H](C(F)(F)F)CC1 (single isomer, unassigned) [Example 84a]
The EC50 of the first is 2.8-fold lower: 66.1 nM for the first, 185 nM for the second.

CCC(=O)O[C@H]1[C@@H](OC(=O)CC)[C@](C#N)(c2ccc3c(N)ncnn23)O[C@@H]1COP(=O)(N[C@@H](C)C(=O)OCC(CC)CC)Oc1ccc(C(C)(C)C)cc1 (stereo partly drawn) [Example 110, (2R,3R,4R,5R)-2-(4-aminopyrrolo[2,1-f][1,2,4]triazin-7-yl)-5-((((4-(tert-butyl)phenoxy)(((S)-1-(2-ethylbutoxy)-1-oxopropan-2-yl)amino)phosphoryl)oxy)methyl)-2-cyanotetrahydrofuran-3,4-diyl Dipropionate] and CCC(=O)O[C@H]1[C@@H](OC(=O)CC)[C@](C#N)(c2ccc3c(N)ncnn23)O[C@@H]1CO[P@@](=O)(N[C@@H](C)C(=O)OCC(C)(C)OC)Oc1ccccc1 [Example 169, (2R,3R,4R,5R)-2-(4-aminopyrrolo[2,1-f][1,2,4]triazin-7-yl)-2-cyano-5-((((S)—(((S)-1-(2-methoxy-2-methylpropoxy)-1-oxopropan-2-yl)amino)(phenoxy)phosphoryl)oxy)methyl)tetrahydrofuran-3,4-diyl Dipropionate] are within 1.5-fold of each other in EC50: 57.6 nM for the first, 62.9 nM for the second.

COC(C)(C)CCOC(=O)[C@H](C)NP(=O)(OC[C@H]1O[C@@](C#N)(c2ccc3c(N)ncnn23)[C@H](OC(=O)C(C)C)[C@@H]1OC(=O)C(C)C)Oc1ccccc1 (stereo partly drawn) [Example 76, [(2R,3R,4R,5R)-5-(4-aminopyrrolo[2,1-f][1,2,4]triazin-7-yl)-5-cyano-2-[[[[(1S)-2-(3-methoxy-3-methyl-butoxy)-1-methyl-2-oxo-ethyl]amino]-phenoxy-phosphoryl]oxymethyl]-4-(2-methylpropanoyloxy)tetrahydrofuran-3-yl] 2-methylpropanoate] and CC(C)CC(=O)O[C@H]1[C@@H](OC(=O)CC(C)C)[C@](C#N)(c2ccc3c(N)ncnn23)O[C@@H]1COP(=O)(N[C@@H](C)C(=O)OC1CCC1)Oc1ccccc1 (stereo partly drawn) [Example 109, (2R,3R,4R,5R)-2-(4-aminopyrrolo[2,1-f][1,2,4]triazin-7-yl)-2-cyano-5-((((((S)-1-cyclobutoxy-1-oxopropan-2-yl)amino)(phenoxy)phosphoryl)oxy)methyl)tetrahydrofuran-3,4-diyl bis(3-methylbutanoate)] are within 1.5-fold of each other in EC50: 29.2 nM for the first, 43.5 nM for the second.

same assay, conditions: read-out: EC50 RSV HEP2 96; HEp-2 cells, RSV A2, MOI=4, 4 days, 96 well; Table 3

CCC(CC)COC(=O)[C@H](C)NP(=O)(OC[C@H]1O[C@@](C#N)(c2ccc3c(N)ncnn23)[C@H](O)[C@@H]1O)Oc1cccc(C(C)(C)C)c1 (stereo partly drawn) [Example 68b] and CCC(CC)COC(=O)[C@H](C)NP(=O)(OC[C@H]1O[C@@](C#N)(c2ccc3c(N)ncnn23)[C@H](OC(=O)C(C)C)[C@@H]1OC(=O)C(C)C)Oc1ccc2ccccc2c1 (stereo partly drawn) [Example 69b, [(2R,3R,4R,5R)-5-(4-aminopyrrolo[2,1-f][1,2,4]triazin-7-yl)-5-cyano-2-[[[[(1S)-2-(2-ethylbutoxy)-1-methyl-2-oxo-ethyl]amino]-(2-naphthyloxy)phosphoryl]oxymethyl]-4-(2-methylpropanoyloxy)tetrahydrofuran-3-yl] 2-methylpropanoate] are within 1.5-fold of each other in EC50: 34.4 nM for the first, 36.9 nM for the second.

First: CC(C)C(=O)O[C@H]1[C@@H](OC(=O)C(C)C)[C@](C#N)(c2ccc3c(N)ncnn23)O[C@@H]1COP(=O)(N[C@@H](C)C(=O)OC1CCCCCCC1)Oc1ccc(C(C)(C)C)cc1 (single isomer, unassigned) [Example 77b]
Second: CC(C)C(=O)O[C@H]1[C@@H](OC(=O)C(C)C)[C@](C#N)(c2ccc3c(N)ncnn23)O[C@@H]1COP(=O)(N[C@@H](C)C(=O)O[C@H]1CC[C@H](C(F)(F)F)CC1)Oc1ccc(C(C)(C)C)cc1 (single isomer, unassigned) [Example 85b]
The EC50 of the first is 2.5-fold higher: 198 nM for the first, 80.5 nM for the second. The second is the more potent here.

Going from CC(C)C(=O)O[C@H]1[C@@H](OC(=O)C(C)C)[C@](C#N)(c2ccc3c(N)ncnn23)O[C@@H]1COP(=O)(N[C@@H](C)C(=O)OC1CCC1)Oc1ccc(C2CC2)cc1 (stereo partly drawn) [Example 52b] to C[C@H](NP(=O)(OC[C@H]1O[C@@](C#N)(c2ccc3c(N)ncnn23)[C@H](O)[C@@H]1O)Oc1cccc2ccccc12)C(=O)OC1CCC1 (single isomer, unassigned) [Intermediate P7a-1], the EC50 rises from 25.4 nM to 224 nM (8.8-fold).
